Values of other authors in US20240108682A1, “COMPOSITIONS AND METHODS FOR INCREASING GLUTATHIONE LEVELS” (Lile Method Research, LLC, priority 2022, published 2024).

Conditions: Lu SC, Curr Top Cell Regul 36:95-116 (2000)

half-life of glutathione in the blood: seconds to minutes
Compound: N[C@@H](CCC(=O)N[C@@H](CS)C(=O)NCC(=O)O)C(=O)O [glutathione, L-γ-glutamyl-L-cysteinylglycine]
